Source: patent US9150566B2, “2-(1,2,3-triazol-2-yl)benzamide and 3-(1,2,3-triazol-2-YL)picolinamide derivatives as orexin receptor antagonists” (ACTELION PHARMACEUTICALS LTD., priority 2011, dated 2015)
Like-named read-outs stand apart in the source and are kept apart here.

Key:
CYP3A4 = CYP3A4 (Homo sapiens (Human), UniProt P08684); test: CYP3A4 inhibition assay (human liver microsomes, testosterone 6β-hydroxylation); details: read-out: CYP3A4 IC50, 40 μM testosterone
human orexin-2 receptor = human orexin-2 receptor (Homo sapiens (Human), UniProt O43614); test: In vitro intracellular calcium measurements (FLIPR), antagonistic activity on orexin-2 receptor; assay type: cell-based; details: read-out: IC50 OX2
How it was run: (§1)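 Recombinant CHO lines bearing human OX1 or OX2 receptors received test antagonist 120 min before agonist addition.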

human orexin-1 receptor = human orexin-1 receptor (Homo sapiens (Human), UniProt O43613); test: In vitro intracellular calcium measurements (FLIPR), antagonistic activity on orexin-1 receptor; assay type: cell-based; details: read-out: IC50 OX1
How it was run: as §1

[1] = CHO cells expressing human orexin-2 receptor, FLIPR, 3 nM orexin-A agonist, 120 min antagonist incubation, geometric mean if determined several times
[2] = CHO cells expressing human orexin-1 receptor, FLIPR, 3 nM orexin-A agonist, 120 min antagonist incubation, geometric mean if determined several times

Chain of human orexin-2 receptor (O43614 whole entry): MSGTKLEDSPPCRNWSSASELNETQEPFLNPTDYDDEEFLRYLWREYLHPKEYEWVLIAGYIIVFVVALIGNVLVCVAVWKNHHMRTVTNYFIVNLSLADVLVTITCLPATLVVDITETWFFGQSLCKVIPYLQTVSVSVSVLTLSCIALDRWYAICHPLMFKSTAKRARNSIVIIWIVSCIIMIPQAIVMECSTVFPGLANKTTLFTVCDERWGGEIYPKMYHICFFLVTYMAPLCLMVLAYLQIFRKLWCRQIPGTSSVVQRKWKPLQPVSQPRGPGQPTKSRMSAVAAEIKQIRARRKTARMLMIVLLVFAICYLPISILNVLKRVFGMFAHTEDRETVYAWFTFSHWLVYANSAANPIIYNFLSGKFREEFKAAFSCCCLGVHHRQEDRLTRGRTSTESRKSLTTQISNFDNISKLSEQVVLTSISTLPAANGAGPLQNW
Chain of CYP3A4 (P08684 whole entry): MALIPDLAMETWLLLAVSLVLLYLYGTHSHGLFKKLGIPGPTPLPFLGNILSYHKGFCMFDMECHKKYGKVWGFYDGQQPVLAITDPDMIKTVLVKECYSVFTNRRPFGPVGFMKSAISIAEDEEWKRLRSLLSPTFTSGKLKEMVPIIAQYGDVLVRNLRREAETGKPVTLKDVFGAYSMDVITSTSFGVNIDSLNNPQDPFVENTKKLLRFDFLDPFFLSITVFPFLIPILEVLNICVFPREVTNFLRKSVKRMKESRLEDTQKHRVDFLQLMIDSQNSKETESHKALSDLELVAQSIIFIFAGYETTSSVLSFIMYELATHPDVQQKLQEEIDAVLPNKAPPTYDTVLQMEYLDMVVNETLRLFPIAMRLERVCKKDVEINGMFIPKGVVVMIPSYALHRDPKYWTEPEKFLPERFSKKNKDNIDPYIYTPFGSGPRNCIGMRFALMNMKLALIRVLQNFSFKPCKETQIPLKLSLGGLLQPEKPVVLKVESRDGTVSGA
Chain of human orexin-1 receptor (O43613 whole entry): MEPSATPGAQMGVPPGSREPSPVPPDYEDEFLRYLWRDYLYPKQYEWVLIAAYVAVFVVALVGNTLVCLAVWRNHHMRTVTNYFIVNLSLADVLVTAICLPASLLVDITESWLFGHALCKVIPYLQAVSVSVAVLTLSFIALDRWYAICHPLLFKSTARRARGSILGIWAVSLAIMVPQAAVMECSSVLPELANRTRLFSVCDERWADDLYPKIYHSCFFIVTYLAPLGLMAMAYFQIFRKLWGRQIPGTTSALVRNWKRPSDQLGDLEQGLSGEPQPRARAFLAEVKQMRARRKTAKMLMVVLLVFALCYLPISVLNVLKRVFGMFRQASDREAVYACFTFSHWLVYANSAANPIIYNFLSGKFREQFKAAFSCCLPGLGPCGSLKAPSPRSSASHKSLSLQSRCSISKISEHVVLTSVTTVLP

Question: Which IC50 (CYP3A4) does the source give for `Cc1ccc(C[C@@H]2COCCN2C(=O)c2ccccc2-n2nccn2)cc1-n1nccn1` [Example 66, [(R)-3-(4-Methyl-3-[1,2,3]triazol-2-yl-benzyl)-morpholin-4-yl]-(2-[1,2,3]triazol-2-yl-phenyl)-methanone] here?
Answer: 36000 nM

Question: And the IC50 (human orexin-2 receptor; [1])?
Answer: 992 nM

Question: What about the IC50 (human orexin-1 receptor; [2]) of the same compound?
Answer: 16 nM

Question: With `Cc1ccc(C(=O)N2CCOC[C@H]2Cc2ccc(C)c(-n3nccn3)c2)c(-n2nccn2)c1` [Example 67, [(R)-3-(4-Methyl-3-[1,2,3]triazol-2-yl-benzyl)-morpholin-4-yl]-(4-methyl-2-[1,2,3]triazol-2-yl-phenyl)-methanone] as the compound, how does the IC50 (CYP3A4) read?
Answer: 25000 nM

Question: What about the IC50 (human orexin-2 receptor) of the same compound?
Answer: 274 nM

Question: And the IC50 (human orexin-1 receptor)?
Answer: 2 nM

Question: With `C[C@@H]1COC[C@@H](Cc2cccc(-n3nccn3)c2)N1C(=O)c1ccccc1-n1nccn1` [Example 68, [(3R,5R)-3-Methyl-5-(3-[1,2,3]triazol-2-yl-benzyl)-morpholin-4-yl]-(2-[1,2,3]triazol-2-yl-phenyl)-methanone] as the compound, how does the IC50 (CYP3A4) read?
Answer: 24000 nM

Question: And the IC50 (human orexin-2 receptor; [1])?
Answer: 1300 nM

Question: And the IC50 (human orexin-1 receptor; [2])?
Answer: 16 nM

Question: With `Cc1ccc(C(=O)N2[C@H](Cc3cccc(-n4nccn4)c3)COC[C@@H]2C)c(-n2nccn2)c1` [Example 71, [(3S,5R)-3-Methyl-5-(3-[1,2,3]triazol-2-yl-benzyl)-morpholin-4-yl]-(4-methyl-2-[1,2,3]triazol-2-yl-phenyl)-methanone] as the compound, how does the IC50 (CYP3A4) read?
Answer: 14000 nM

Question: What about the IC50 (human orexin-2 receptor) of the same compound?
Answer: 2190 nM

Question: And the IC50 (human orexin-1 receptor)?
Answer: 35 nM

Question: Which results are given for `Cc1ccc(-n2nccn2)c(C(=O)N2[C@H](Cc3cccc(-n4nccn4)c3)COC[C@@H]2C)c1` [Example 73, [(3S,5R)-3-Methyl-5-(3-[1,2,3]triazol-2-yl-benzyl)-morpholin-4-yl]-(5-methyl-2-[1,2,3]triazol-2-yl-phenyl)-methanone]?
Answer: IC50 (CYP3A4): 6800 nM; IC50 (human orexin-2 receptor; [1]): 1850 nM; IC50 (human orexin-1 receptor; [2]): 10 nM

Question: Which results are given for `Cc1cc(C)c(-n2nccn2)c(C(=O)N2CCOC[C@H]2Cc2cccc(-n3nccn3)c2)c1` [Example 75, (3,5-Dimethyl-2-[1,2,3]triazol-2-yl-phenyl)-[(R)-3-(3-[1,2,3]triazol-2-yl-benzyl)-morpholin-4-yl]-methanone]?
Answer: IC50 (CYP3A4): 15000 nM; IC50 (human orexin-2 receptor; [1]): 547 nM; IC50 (human orexin-1 receptor; [2]): 3 nM

Question: How did the IC50 (CYP3A4) turn out when `COc1cc(C(=O)N2CCOC[C@H]2Cc2cccc(-n3nccn3)c2)c(-n2nccn2)cc1F` [Example 78, (4-Fluoro-5-methoxy-2-[1,2,3]triazol-2-yl-phenyl)-[(R)-3-(3-[1,2,3]triazol-2-yl-benzyl)-morpholin-4-yl]-methanone] was run?
Answer: 22000 nM

Question: What about the IC50 (human orexin-2 receptor; [1]) of the same compound?
Answer: 528 nM

Question: And the IC50 (human orexin-1 receptor; [2])?
Answer: 17 nM

Question: Which results are given for `Cc1ccc(C(=O)N2CCOC[C@H]2Cc2cccc(-c3ncon3)c2)c(-n2nccn2)c1` [Example 81, (4-Methyl-2-[1,2,3]triazol-2-yl-phenyl)-[(R)-3-(3-[1,2,4]oxadiazol-3-yl-benzyl)-morpholin-4-yl]-methanone]?
Answer: IC50 (CYP3A4): 33000 nM; IC50 (human orexin-2 receptor; [1]): 212 nM; IC50 (human orexin-1 receptor; [2]): 2 nM

Question: Which IC50 (CYP3A4) does the source give for `O=C(c1cc(Cl)ccc1-n1nccn1)N1CCOC[C@H]1Cc1cccc(-c2ncon2)c1` [Example 84, (5-Chloro-2-[1,2,3]triazol-2-yl-phenyl)-[(R)-3-(3-[1,2,4]oxadiazol-3-yl-benzyl)-morpholin-4-yl]-methanone] here?
Answer: 21000 nM

Question: And the IC50 (human orexin-2 receptor; [1])?
Answer: 246 nM

Question: What about the IC50 (human orexin-1 receptor; [2]) of the same compound?
Answer: 5 nM

Question: Which IC50 (CYP3A4) does the source give for `Cc1cc(C(=O)N2CCOC[C@H]2Cc2cccc(-c3ncon3)c2)c(-n2nccn2)cc1C` [Example 85, (4,5-Dimethyl-2-[1,2,3]triazol-2-yl-phenyl)-[(R)-3-(3-[1,2,4]oxadiazol-3-yl-benzyl)-morpholin-4-yl]-methanone] here?
Answer: 25000 nM

Question: What about the IC50 (human orexin-2 receptor; [1]) of the same compound?
Answer: 21 nM

Question: What about the IC50 (human orexin-1 receptor; [2]) of the same compound?
Answer: 1 nM

Question: Which results are given for `O=C(c1ccccc1-n1nccn1)N1CCOC[C@H]1Cc1ccc(Cl)c(-c2ncon2)c1` [Example 90, [(R)-3-(4-Chloro-3-[1,2,4]oxadiazol-3-yl-benzyl)-morpholin-4-yl]-(2-[1,2,3]triazol-2-yl-phenyl)-methanone]?
Answer: IC50 (CYP3A4): 21000 nM; IC50 (human orexin-2 receptor; [1]): 475 nM; IC50 (human orexin-1 receptor; [2]): 12 nM

Question: Which results are given for `O=C(c1cc(F)c(F)cc1-n1nccn1)N1CCOC[C@H]1Cc1cccc(-n2nccn2)c1` [Example 91, (4,5-Difluoro-2-[1,2,3]triazol-2-yl-phenyl)-[(R)-3-(3-[1,2,3]triazol-2-yl-benzyl)-morpholin-4-yl]-methanone]?
Answer: IC50 (CYP3A4): 17000 nM; IC50 (human orexin-2 receptor; [1]): 612 nM; IC50 (human orexin-1 receptor; [2]): 10 nM

Question: Which IC50 (CYP3A4) does the source give for `COc1ccc(C(=O)N2CCOC[C@H]2Cc2cccc(-n3nccn3)c2)c(-n2nccn2)c1` [Example 93, (4-Methoxy-2-[1,2,3]triazol-2-yl-phenyl)-[(R)-3-(3-[1,2,3]triazol-2-yl-benzyl)-morpholin-4-yl]-methanone] here?
Answer: > 50000 nM

Question: And the IC50 (human orexin-2 receptor)?
Answer: 2090 nM

Question: What about the IC50 (human orexin-1 receptor) of the same compound?
Answer: 5 nM

Question: Which results are given for `COc1ccc(C(=O)N2CCOC[C@H]2Cc2cc(-n3nccn3)ccc2F)c(-n2nccn2)c1` [Example 95, [(R)-3-(2-Fluoro-5-[1,2,3]triazol-2-yl-benzyl)-morpholin-4-yl]-(4-methoxy-2-[1,2,3]triazol-2-yl-phenyl)-methanone]?
Answer: IC50 (CYP3A4): 49000 nM; IC50 (human orexin-2 receptor; [1]): 1200 nM; IC50 (human orexin-1 receptor; [2]): 11 nM

Question: With `Cc1ccc(C(=O)N2C[C@H](C)OC[C@H]2Cc2cccc(-n3nccn3)c2)c(-n2nccn2)c1` [Example 96, [(2S,5R)-2-Methyl-5-(3-[1,2,3]triazol-2-yl-benzyl)-morpholin-4-yl]-(4-methyl-2-[1,2,3]triazol-2-yl-phenyl)-methanone] as the compound, how does the IC50 (CYP3A4) read?
Answer: 28000 nM

Question: What about the IC50 (human orexin-2 receptor) of the same compound?
Answer: 390 nM

Question: What about the IC50 (human orexin-1 receptor) of the same compound?
Answer: 10 nM

Question: What does the source list for `Cc1cccc(C(=O)N2C[C@@H](C)OC[C@H]2Cc2cccc(-n3nccn3)c2)c1-n1nccn1` [Example 97, [(2R,5R)-2-Methyl-5-(3-[1,2,3]triazol-2-yl-benzyl)-morpholin-4-yl]-(3-methyl-2-[1,2,3]triazol-2-yl-phenyl)-methanone]?
Answer: IC50 (CYP3A4): 11000 nM; IC50 (human orexin-2 receptor; [1]): 237 nM; IC50 (human orexin-1 receptor; [2]): 3 nM

Question: `Cc1cc(C(=O)N2C[C@@H](C)OC[C@H]2Cc2cccc(-n3nccn3)c2)c(-n2nccn2)cc1C` [Example 98, (4,5-Dimethyl-2-[1,2,3]triazol-2-yl-phenyl)-[(2R,5R)-2-methyl-5-(3-[1,2,3]triazol-2-yl-benzyl)-morpholin-4-yl]-methanone] was tested. Which IC50 (CYP3A4) did it give?
Answer: 9700 nM

Question: What about the IC50 (human orexin-2 receptor; [1]) of the same compound?
Answer: 24 nM

Question: What about the IC50 (human orexin-1 receptor; [2]) of the same compound?
Answer: 1 nM

Question: For `Cc1ccc(C(=O)N2C[C@@H](C)OC[C@H]2Cc2cccc(-n3nccn3)c2)c(-n2nccn2)c1C` [Example 99, (3,4-Dimethyl-2-[1,2,3]triazol-2-yl-phenyl)-[(2R,5R)-2-methyl-5-(3-[1,2,3]triazol-2-yl-benzyl)-morpholin-4-yl]-methanone], which IC50 (CYP3A4) is on record?
Answer: 9600 nM

Question: And the IC50 (human orexin-2 receptor; [1])?
Answer: 1220 nM

Question: What about the IC50 (human orexin-1 receptor; [2]) of the same compound?
Answer: 5 nM

Question: `Cc1ccc(C(=O)N2C[C@@H](C)OC[C@H]2Cc2cccc(-n3nccn3)c2)c(-n2nccn2)c1` [Example 101, [(2R,5R)-2-Methyl-5-(3-[1,2,3]triazol-2-yl-benzyl)-morpholin-4-yl]-(4-methyl-2-[1,2,3]triazol-2-yl-phenyl)-methanone] was tested. Which IC50 (CYP3A4) did it give?
Answer: 9700 nM

Question: And the IC50 (human orexin-2 receptor)?
Answer: 155 nM

Question: And the IC50 (human orexin-1 receptor)?
Answer: 2 nM

Question: How did the IC50 (CYP3A4) turn out when `Cc1ccc(-n2nccn2)c(C(=O)N2CCOC[C@@]2(C)Cc2cccc(-n3nccn3)c2)c1` [Example 102, [(R)-3-Methyl-3-(3-[1,2,3]triazol-2-yl-benzyl)-morpholin-4-yl]-(5-methyl-2-[1,2,3]triazol-2-yl-phenyl)-methanone] was run?
Answer: 17000 nM

Question: What about the IC50 (human orexin-2 receptor; [1]) of the same compound?
Answer: 1510 nM

Question: What about the IC50 (human orexin-1 receptor; [2]) of the same compound?
Answer: 25 nM
